Source: ChEMBL document CHEMBL1139988, “Discovery of structurally diverse HIV-1 integrase inhibitors based on a chalcone pharmacophore” (Bioorg Med Chem, 2007)
pIC50: −log10 of the molar value. Values joined by “and” are separate entries in the source; they are usually repeats but may differ in a detail not shown here. Equal values may be shown once.

Experiments:
[1] = molecular target: T1, Human immunodeficiency virus type 1 integrase (Human immunodeficiency virus 1, UniProt Q7ZJM1); test: Inhibition of HIV1 integrase 3'-end processing activity
[2] = molecular target: T1, Human immunodeficiency virus type 1 integrase; test: Inhibition of HIV1 integrase strand transfer activity
[3] = molecular target: T1, Human immunodeficiency virus type 1 integrase; test: Inhibition of HIV1 integrase strand transfer activity in presence of magnesium cofactor
[4] = molecular target: T1, Human immunodeficiency virus type 1 integrase; test: Inhibition of HIV1 integrase 3'-end processing activity in presence of magnesium cofactor

T1 sequence (Q7ZJM1 whole entry): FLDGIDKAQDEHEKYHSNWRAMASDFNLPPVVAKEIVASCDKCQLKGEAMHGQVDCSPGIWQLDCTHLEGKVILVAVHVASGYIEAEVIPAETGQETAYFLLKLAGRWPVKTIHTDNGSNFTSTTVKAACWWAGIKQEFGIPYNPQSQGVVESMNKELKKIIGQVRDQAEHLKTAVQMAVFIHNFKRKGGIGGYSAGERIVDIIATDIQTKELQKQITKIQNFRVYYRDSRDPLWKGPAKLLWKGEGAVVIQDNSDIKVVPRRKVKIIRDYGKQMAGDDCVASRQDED

| SMILES | pIC50 [1] | pIC50 [2] | pIC50 [3] | pIC50 [4] |
| --- | --- | --- | --- | --- |
| Cc1ccc(O)c(/C=N/Nc2nc3c(c(=O)[nH]c(=O)n3C)n2Cc2ccccc2)c1 | < 4.00 | < 4.00 |  |  |
| O=C(CNC(=O)c1ccc(Cl)cc1)OCC(=O)c1ccc([N+](=O)[O-])cc1 | 3.24 | 3.27 |  |  |
| O=C(/C=C/c1ccc2c(c1)OCO2)c1ccccc1O | < 4.00 | < 4.00 |  |  |
| CCCn1c(=O)c(C(=O)NNC(=O)COc2ccccc2)c(O)c2ccccc21 | < 4.00 | < 4.00 |  |  |
| O=C(NC1CCCCC1)C(c1ccco1)N(C(=O)Cn1nnc2ccccc21)c1ccc(S(=O)(=O)NCC2CCCO2)cc1 (configuration not stated) | < 4.00 | < 4.00 |  |  |
| Cn1c(=O)[nH]c(=O)c2c1nc(SCC(O)CCl)n2CC(O)COc1ccc(Cl)cc1 (configuration not stated) | < 4.00 | < 4.00 |  |  |
| O=C1Nc2ccccc2/C1=N\NC(=O)c1ccc(O)cc1O | < 4.00 | 4.44 |  |  |
| CCc1cccc2c(SCC(=O)NNC(=O)c3ccccc3[N+](=O)[O-])nc(-c3ccc(F)cc3)nc12 | < 4.00 | 4.00 |  |  |
| O=C(/C=C/c1ccc2c(c1)OCO2)c1ccccc1 | < 4.00 | < 4.00 |  |  |
| CC(=O)Nc1ccc2c(c1)OCCOCCOc1cc(NC(C)=O)ccc1OCCOCCO2 | 3.17 | 3.17 |  |  |
| O=C(CCC(=O)Nc1ccc([N+](=O)[O-])c(C(F)(F)F)c1)Nc1ccc([N+](=O)[O-])c(C(F)(F)F)c1 | 3.71 | 3.68 |  |  |
| O=C(O)c1ccc(NCN2C(=O)c3ccc([N+](=O)[O-])cc3C2=O)cc1 | 3.74 and 3.86 | 3.74 and 3.72 |  |  |
| COc1cc(OC)c(C(=O)/C=C/c2cccc([N+](=O)[O-])c2)cc1OC | < 4.00 | < 4.00 |  |  |
| COc1cc(C(=O)/C=C/c2ccc3c(c2)OCO3)cc(OC)c1OC | < 4.00 | < 4.00 |  |  |
| CCCn1c(=O)c(C(=O)NNC(=O)CC(=O)OCC)c(O)c2ccccc21 | < 4.00 | 4.32 |  |  |
| O=C(Oc1ccc(/C=N/Nc2nnc3c(n2)[nH]c2ccccc23)cc1)c1ccc(Br)cc1 | 3.07 | 3.10 |  |  |

| SMILES | pIC50 [1] | pIC50 [2] | pIC50 [3] | pIC50 [4] |
| --- | --- | --- | --- | --- |
| COc1cc(C(NC(=O)c2ccco2)NC(=O)c2ccco2)ccc1OCc1ccccc1 | < 4.00 | < 4.00 |  |  |
| COc1cc(C(=O)/C=C/c2ccc3c(c2)OCO3)ccc1O | < 4.00 | < 4.00 |  |  |
| CCc1nc2sc3c(c2c2nnc(SCC(=O)NNC(=O)c4ccc(OC)cc4)n12)CCCC3 | < 4.00 | 4.00 |  |  |
| O=C(/C=C/c1cccc(NC(=O)c2cccs2)c1)c1ccccc1 | < 4.00 | 4.05 |  |  |
| COc1ccc(OC)c(C(=O)/C=C/c2ccc3c(c2)OCO3)c1 | < 4.00 | < 4.00 |  |  |
| CCCC(=O)NC(c1ccc(OC)c(OC)c1)c1cc(Cl)c2cccnc2c1O (configuration not stated) | < 4.00 | 4.05 |  |  |
| Cc1ccc(NP(=O)(Oc2ccccc2)Oc2ccccc2)cc1 | < 3.00 | < 3.00 |  |  |
| COc1ccc(/C=C/C(=O)c2ccc(O)cc2O)cc1 | < 4.00 | 4.41 |  |  |
| CCCCCCc1nc2ccccc2c(=O)n1NC(=O)c1c(O)c2ccccc2n(CC)c1=O | < 4.00 | < 4.00 |  |  |
| O=C(/C=C/c1ccccc1OC(=O)c1cc2ccccc2oc1=O)c1ccccc1 | < 4.00 | 4.04 |  |  |
| O=C1Nc2ccccc2/C1=N/NC(=O)c1ccccc1O | < 4.00 | 4.24 |  |  |
| O=C(N/N=C/c1c[nH]c2ccccc12)c1ccc(O)c(O)c1 | < 3.00 | 3.34 |  |  |
| CCCn1c(N/N=C/c2cc(Br)ccc2O)nc2c1c(=O)[nH]c(=O)n2C | < 4.00 | 4.10 |  |  |
| Cc1ccc(NCC(=O)N/N=C/c2cccc(OC(=O)c3ccc4c(c3)OCO4)c2)cc1 | 3.17 | 3.14 |  |  |
| Cc1nc(SCC(=O)c2ccc(O)c(O)c2)c(C#N)c(CC(C)C)c1C(N)=O | < 4.00 | 4.07 |  |  |
| COc1ccc(NC(=O)CSc2nc(-c3ccncc3)nn2CC(=O)NCc2ccco2)cc1 | < 4.00 | < 4.00 |  |  |

More lines, now with the values ahead:

| pIC50 [1] | pIC50 [2] | pIC50 [3] | pIC50 [4] | SMILES |
| --- | --- | --- | --- | --- |
| 3.56 | 4.05 |  |  | Nc1cc(O)nc(SCC(=O)c2ccc(O)c(O)c2)n1 |
| 4.17 | 4.49 |  |  | O=C(Nc1ccccc1C(=O)O)c1ccc(C(=O)Nc2ccccc2C(=O)O)cc1 |
| 4.07 | 4.22 |  |  | O=C(CSc1nc2ccccc2c(=O)n1CC1CCCO1)NNC(=O)c1ccccc1O (configuration not stated) |
| 4.54 | 4.54 |  |  | COc1cc([N+](=O)[O-])cc(/C=N/Nc2nc(Nc3ccccc3)nc(Nc3ccccc3)n2)c1O |
| 4.54 | 4.74 |  |  | O=C(COc1ccc2ccccc2c1)NNC(=O)c1ccccc1O |
| 3.51 | 3.89 |  |  | Cc1cc(O)nc(SCC(=O)c2ccc(O)c(O)c2)n1 |
| 4.00 | 4.55 |  |  | O=C(NNC(=O)c1c(O)c2ccccc2[nH]c1=O)c1ccccc1 |
| 4.04 | 4.60 |  |  | O=C(CSc1nnc(-c2ccncc2)[nH]1)c1ccc(O)cc1O |
| 4.04 | 4.70 |  |  | NC(=O)NN=C1c2cc(S(=O)(=O)NCc3ccco3)ccc2-c2ccc(S(=O)(=O)NCc3ccco3)cc21 |
| 4.44 | 4.52 |  |  | CCn1c(=O)c(C(=O)NNC(=O)c2ccccc2[N+](=O)[O-])c(O)c2ccccc21 |
| 4.28 | 4.33 |  |  | O=C(/C=C/c1ccccc1O)c1ccc(O)cc1O |
| 4.39 | 4.37 |  |  | Nc1ccc(C(=O)CC(=O)Nc2cc(C(=O)O)cc(C(=O)O)c2)cc1 |
| 4.72 | 4.80 |  |  | COc1ccc(C(=O)Nc2ccccc2C(=O)NC(C(=O)NNC(=O)c2ccccc2O)C(C)C)cc1 (configuration not stated) |
| 4.13 | 4.14 |  |  | Cc1cc(C)cc(OCC(=O)NNC(=O)c2cc3ccccc3oc2=O)c1 |
| 5.70 | 5.70 |  |  | COc1cccc(/C=C/C(=O)c2ccccc2)c1O |
| 4.74 | 4.89 |  |  | COc1ccc(Nc2nc(NCc3ccco3)nc(N/N=C/c3ccc(Br)cc3)n2)cc1 |
| 4.08 | 4.08 |  |  | Cc1ccc(NC(=O)CN2C(=O)/C(=N\NC(=O)c3ccc4ccccc4n3)c3ccccc32)cc1 |
| 4.55 | 4.92 |  |  | O=C(CSc1nc(SCC(=O)NCc2ccco2)nc(SCC(=O)NCc2ccco2)n1)NCc1ccco1 |
| 3.52 | 4.08 |  |  | Oc1ccc(-c2csc(Nc3ncccn3)n2)cc1O |
| 4.38 | 4.48 |  |  | COc1cccc(C(=O)NNC(=O)c2ccc3ccccc3c2O)c1 |
| 4.27 | 4.34 |  |  | O=C(NNC(=O)c1c(O)c2ccccc2[nH]c1=O)c1ccccc1[N+](=O)[O-] |
| 4.19 | 4.24 |  |  | CCCc1nc2ccccc2c(=O)n1NC(=O)c1c(O)c2cccc3c2n(c1=O)CCC3 |
| 3.71 | 3.66 |  |  | Oc1ccc(Cl)cc1/C=C/c1ccc2cccc(O)c2n1 |
| 4.74 | 4.92 |  |  | O=C(COc1ccc2ccccc2c1)NNC(=O)c1cc2ccccc2cc1O |

| pIC50 [1] | pIC50 [2] | pIC50 [3] | pIC50 [4] | SMILES |
| --- | --- | --- | --- | --- |
| 4.28 | 4.52 |  |  | O=C(NNC(=O)c1c(O)c2ccccc2[nH]c1=O)c1ccccc1F |
| 4.09 | 4.43 |  |  | CNc1nc(N/N=C/c2ccc(-c3ccc([N+](=O)[O-])cc3OC)o2)nc(Nc2ccccc2)n1 |
| 5.72 | 6.22 |  |  | O=[N+]([O-])c1cc(Br)cc(/C=N/Nc2nc(Nc3ccccc3)nc(Nc3ccccc3)n2)c1O |
| 4.49 | 4.70 |  |  | CCn1c(=O)c(C(=O)NNC(=O)c2ccc([N+](=O)[O-])cc2)c(O)c2ccccc21 |
| 5.22 | 5.40 | 5.02 | 4.77 | CCOc1ccc(-c2c(C#N)c(N)nc(SCC(=O)c3cc4cc(Br)cc(Br)c4oc3=O)c2C#N)cc1 |
| 3.84 | 4.09 |  |  | CCOc1cc(Br)cc(/C=N/c2ncccc2O)c1O |
| 5.48 | 6.00 |  |  | O=C(NNC(=O)c1c(O)c2ccccc2[nH]c1=O)c1cccc([N+](=O)[O-])c1 |
| 4.19 | 4.22 |  |  | CCCOc1ccc(/C=N/NC2=NC(c3ccccc3O)CC(c3ccccc3)=N2)c(O)c1 (configuration not stated) |
| 3.79 | 3.60 |  |  | O=S(=O)(Nc1ccc(Br)cc1)c1ccc(Sc2ccc(S(=O)(=O)Nc3ccc(Br)cc3)cc2)cc1 |
| 4.06 | 4.00 |  |  | Cn1c(SCC(=O)NNC(=O)c2cccc(O)c2)nc2sc3c(c2c1=O)CCC3 |
| 5.15 | 5.40 |  |  | O=C(O)c1cc(-c2ccc(/C=N/Nc3nc4nonc4nc3Nc3ccccc3F)o2)ccc1Cl |
| 3.67 | 3.65 |  |  | O=C(O)COc1ccccc1/C=N/Nc1nncc(-c2ccccc2)n1 |
| 4.02 | 4.15 |  |  | O=C(Nc1nccs1)/C(O)=C/C(=O)c1ccc(Cl)cc1 |
| 4.31 | 4.74 |  |  | COc1ccc(C(=O)NNC(=O)c2cc3ccccc3cc2O)cc1 |
| 4.11 | 4.31 |  |  | O=c1nc2n(-c3ccc(Cl)cc3)c3ccc([N+](=O)[O-])cc3cc-2c(=O)[nH]1 |
| 4.43 | 4.77 |  |  | CCn1c(=O)c(C(=O)NNC(=O)c2cccc([N+](=O)[O-])c2)c(O)c2ccccc21 |
| 4.00 | 4.18 |  |  | CCCn1c(=O)c(C(=O)NNC(=O)c2ccccc2)c(O)c2ccccc21 |
| 4.80 | 4.96 |  |  | Oc1ccc(Br)cc1/C=N/Nc1nc2nonc2nc1Nc1ccc(F)cc1 |
| 4.00 | 4.00 |  |  | O=C(Nc1cccc(O)c1)c1cc(C(=O)Nc2cccc(O)c2)cc(N2C(=O)c3ccccc3C2=O)c1 |
| 4.06 | 4.11 |  |  | O=C(CSc1nc(O)c2ccccc2n1)c1ccc(O)c(O)c1 |
| 4.10 | 4.15 |  |  | COc1ccc(NC(=O)c2cccc(S(=O)(=O)Nc3ccc(C(=O)O)cc3)c2)cc1 |
| 3.82 | 3.89 |  |  | O=C(N/N=C/c1cccc([N+](=O)[O-])c1)c1cccc(C(=O)N/N=C/c2cccc([N+](=O)[O-])c2)n1 |
| 4.15 | 4.59 |  |  | O=C(N/N=C/c1ccc(O)c(O)c1)c1ccccc1O |
| 3.72 | 3.70 |  |  | CCN(CC)c1nc(N/N=C/c2ccc([N+](=O)[O-])cc2)nc(Nc2ccc(C)c(Cl)c2)n1 |
